This passage reports TGI and GI50 results from PubChem BioAssay (NCI).

Where “and” joins values, the source holds several entries; their conditions need not be identical. Equal values may be shown once.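 Cells were grown in 96-well plates and exposed to each compound for 48 hours at five concentrations; endpoints were interpolated linearly between bracketing concentrations, or set to the highest concentration if not reached. Here, GI50 denotes the concentration required for 50% inhibition of growth. TGI: total growth inhibition.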 *1 amine or outer side, *2 acyl side, *3 side chain or, on linkers, in order; H or OH if unused. Where a SMILES comes first, the peptide text is derived from it. Bridges are numbered along the chain shown (N, C = ends). Roman numbers before positions name the chains, in order. [ ]: non-standard residue; d: D form. Actinocin(9to1) = Cc1c2oc3c(C)ccc(C(=O)[*:1])c3nc-2c(C(=O)[*:2])c(N)c1=O; NMeV = CN[CH](C(=O)O)C(C)C; Sar = CNCC(=O)O

Some test systems named below: SK-MEL-28 melanoma; IGROV1 ovarian; HCT-15 colon; SNB-19 CNS; SF-268 CNS; EKVX NSCLC; SNB-75 CNS; HL-60(TB) leukemia; SF-539 CNS; NCI-H23 lung; RPMI-8226 leukemia.
Common to all, as to experiment: NCI tumour cell line growth inhibition, 48 h

Turning to `NC(Cc1ccc(OCc2ccccc2)cc1)C(=O)NC(Cc1ccccc1)C(=O)Oc1c(Cl)c(Cl)c(Cl)c(Cl)c1Cl` (stereo not drawn), the TGI with SK-MEL-28 melanoma is 31.6 µM; with IGROV1 ovarian, 31.4 µM; in the assay on HCT-15 colon, 30.2 µM; with SNB-19 CNS it was 34 µM; with SF-268 CNS, 38.9 µM; with EKVX NSCLC it was 41.6 µM. The TGI in the assay on SNB-75 CNS is 29.6 µM; in the assay with HL-60(TB) leukemia, > 100 µM; with SF-539 CNS it was 30.6 µM; in the assay with NCI-H23 lung it was 30.6 µM; in the assay on RPMI-8226 leukemia, > 100 µM.
For `CC(C)(C)c1ccc(C(O)CCCN2CCC(C(O)(c3ccccc3)c3ccccc3)CC2)cc1` (stereo not drawn), the GI50 in the assay on SK-MEL-28 melanoma was 1.72 µM and 13.9 µM; in the assay on SF-268 CNS, 1.57 µM; in the assay on EKVX NSCLC, 1.37 µM; in the assay on HL-60(TB) leukemia it was 2.16 µM; in the assay on RPMI-8226 leukemia it was 1.94 µM. Further, the TGI is 3.11 µM and 19.2 µM with SK-MEL-28 melanoma; 2.92 µM with SF-268 CNS; 2.77 µM in the assay on EKVX NSCLC; 3.97 µM in the assay on HL-60(TB) leukemia; 5.49 µM in the assay on RPMI-8226 leukemia.
Turning to `O=C(NNC(=S)Nc1ccccc1)c1nsc2ccccc12`, the TGI in the assay on SK-MEL-28 melanoma, with IGROV1 ovarian, with HCT-15 colon, in the assay with SNB-19 CNS, in the assay with SF-268 CNS and in the assay with EKVX NSCLC was > 100 µM throughout. The TGI with SNB-75 CNS was 65.6 µM; with HL-60(TB) leukemia it was 53.8 µM; in the assay on SF-539 CNS it was 97.8 µM; in the assay on NCI-H23 lung it was > 100 µM; in the assay with RPMI-8226 leukemia, > 100 µM.
As for `Cc1c2oc3c(C)ccc(C(=O)NC4C(=O)NC(Cc5ccccc5)C(=O)N5CCCC5C(=O)N(C)CC(=O)N(C)C(C(C)C)C(=O)OC4C)c3nc-2c(C(=O)NC2C(=O)NC(Cc3ccccc3)C(=O)N3CCCC3C(=O)N(C)CC(=O)N(C)C(C(C)C)C(=O)OC2C)c(N)c1=O` (stereo not drawn) (I: TFP[Sar][NMeV] / II: TFP[Sar][NMeV]; ester I:1-I:C, II:1-II:C; linker I:N-II:N via Actinocin(9to1); configuration not given here), the TGI was 0.0298 µM and 0.0417 µM with SK-MEL-28 melanoma; 0.0165 µM in the assay on IGROV1 ovarian; 1.62 µM in the assay on SNB-19 CNS; 0.121 µM and 0.528 µM with SF-268 CNS; 0.049 µM in the assay on SNB-75 CNS; < 0.001 µM in the assay on HL-60(TB) leukemia. Moreover, the TGI in the assay with NCI-H23 lung is 0.0202 µM and 0.0398 µM; with RPMI-8226 leukemia, > 100 µM. Also, the GI50 was 0.017 µM in the assay on HCT-15 colon, < 0.001 µM with SNB-19 CNS and < 0.001 µM in the assay with SF-539 CNS.
